Molecular target: T1, Gag-Pol polyprotein [588-1027]/[588-1147] (Human immunodeficiency virus 1, UniProt P04585)
T1 construct: 588-1027; 588-1147
Test: Tested for inhibition against HIV-1 RT (used (poly)rC-(oligo)dG as the template)

Compound	IC50 [µM]
CCc1cc(CCc2nc3c(o2)CCCC3)c(=O)[nH]c1C [5-ethyl-6-methyl-3-[2-(4,5,6,7-tetrahydro-1,3-benzoxazol-2-yl)ethyl]-1,2-dihydropyridin-2-one]	0.058
CCc1cc(CCc2nc3ccccc3o2)c(N)nc1C [3-[2-(1,3-benzoxazol-2-yl)ethyl]-5-ethyl-6-methylpyridin-2-amine]	100

From BindingDB's records for doi:10.1021/jm00060a002 (Merck Reserch Laboratories, 1993)
